Test results: patent US11078198B2 (BRISTOL-MYERS SQUIBB COMPANY, priority 2017, dated 2021)

Biological target: T1, human FXR (Homo sapiens, UniProt Q96RI1)
T1 construct: expressed in transfected cells; host or cells: HEK293 cells stably carrying a 5xGal4-response-element firefly luciferase reporter, transiently transfected with pcDNA3.1-Gal4-FXR
T1 sequence (Q96RI1 262-486 limits assumed): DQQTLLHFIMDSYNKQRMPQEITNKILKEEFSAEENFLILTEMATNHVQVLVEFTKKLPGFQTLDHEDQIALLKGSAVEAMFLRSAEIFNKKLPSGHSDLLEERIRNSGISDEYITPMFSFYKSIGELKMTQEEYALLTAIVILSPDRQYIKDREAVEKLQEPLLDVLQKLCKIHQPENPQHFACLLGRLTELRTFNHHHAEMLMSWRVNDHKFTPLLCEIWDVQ
Experiment: transient human FXR/Gal4-luciferase reporter assay
Type: cell-based
Details: Gal4-hFXR transfected HEK293 reporter cells; relative to 8 μM GW-4064
In short: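 Transient Gal4-hFXR LBD fusion (pcDNA3.1, Lipofectamine, overnight) expressed in a HEK293 reporter line stably bearing five Gal4 elements upstream of firefly luciferase, grown in charcoal/dextran-stripped FBS. Compound dilutions in DMSO incubated with cells overnight at 37° C, 5% CO2, before luciferase readout.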

Row | SMILES | EC50 [nM]
1 | O=C(O)c1cc2ccc(N3CCC4(C=C(c5c(-c6cnccc6C(F)(F)F)noc5C5CC5)C4)CC3)cc2cn1 [Example 160, 7-(2-(5-Cyclopropyl-3-(4-(trifluoromethyl)pyridin-3-yl)isoxazol-4-yl)-7-azaspiro[3.5]non-1-en-7-yl)isoquinoline-3-carboxylic acid] | 1610
2 | O=C(O)c1cc2ccc(N3CCC4(C=C(c5c(-c6c(Cl)cncc6Cl)noc5C5CC5)C4)CC3)cc2nn1 [Example 55, 7-(2-(5-Cyclopropyl-3-(3,5-dichloropyridin-4-yl)isoxazol-4-yl)-7-azaspiro[3.5]non-1-en-7-yl)cinnoline-3-carboxylic acid] | 191
3 | O=C(O)c1cc(F)c2nc(N3CCC4(CC3)CC(O)(c3c(-c5c(Cl)cccc5Cl)noc3C3CC3)C4)sc2c1 [Example 33, 2-(2-(5-Cyclopropyl-3-(2,6-dichlorophenyl)isoxazol-4-yl)-2-hydroxy-7-azaspiro[3.5]nonan-7-yl)-4-fluorobenzo[d]thiazole-6-carboxylic acid] | 4800
4 | CCOc1cc(C(=O)O)nc2ccc(N3CCC4(C=C(c5c(-c6c(Cl)cncc6Cl)noc5C5CC5)C4)CC3)cc12 [Example 107, 6-(2-(5-Cyclopropyl-3-(3,5-dichloropyridin-4-yl)isoxazol-4-yl)-7-azaspiro[3.5]non-1-en-7-yl)-4-ethoxyquinoline-2-carboxylic acid] | 31
5 | O=C(O)c1cc(C(F)(F)F)c2cc(N3CCC4(C=C(c5c(-c6c(F)cccc6F)noc5C5CC5)C4)CC3)ccc2n1 [Example 82, 6-(2-(5-Cyclopropyl-3-(2,6-difluorophenyl)isoxazol-4-yl)-7-azaspiro[3.5]non-1-en-7-yl)-4-(trifluoromethyl)quinoline-2-carboxylic acid] | 356
6 | O=C(O)c1cc(F)c2nc(N3CCC4(C=C(c5c(-c6c(Cl)cccc6Cl)noc5C5CC5)CO4)CC3)sc2c1 [Example 3, 2-(3-(5-Cyclopropyl-3-(2,6-dichlorophenyl)isoxazol-4-yl)-1-oxa-8-azaspiro[4.5]dec-3-en-8-yl)-4-fluorobenzo[d]thiazole-6-carboxylic acid] | 240
7 | O=C(O)c1ccc2cc(N3CCC4(C=C(c5c(-c6c(F)cccc6F)noc5C5CC5)C4)CC3)ccc2n1 [Example 151, 6-(2-(5-Cyclopropyl-3-(2,6-difluorophenyl)isoxazol-4-yl)-7-azaspiro[3.5]non-1-en-7-yl)quinoline-2-carboxylic acid] | 1990
8 | O=C(O)c1cc(OC(F)F)c2cc(N3CCC4(C=C(c5c(-c6cnccc6C(F)(F)F)noc5C5CC5)C4)CC3)ccc2n1 [Example 75, 6-(2-(5-Cyclopropyl-3-(4-(trifluoromethyl)pyridin-3-yl)isoxazol-4-yl)-7-azaspiro[3.5]non-1-en-7-yl)-4-(difluoromethoxy)quinoline-2-carboxylic acid] | 35
9 | CCOC(=O)c1cc(C(F)(F)F)c2cc(N3CCC4(C=C(c5c(-c6c(Cl)cncc6Cl)noc5C5CC5)C4)CC3)ccc2n1 [Example 203, Ethyl 6-(2-(5-cyclopropyl-3-(3,5-dichloropyridin-4-yl)isoxazol-4-yl)-7-azaspiro[3.5]non-1-en-7-yl)-4-(trifluoromethyl)quinoline-2-carboxylate] | 946
10 | O=C(O)c1ccc(N2CCC3(C=C(c4c(-c5ccccc5OC(F)(F)F)noc4C4CC4)C3)CC2)nc1 [Example 21, 6-(2-(5-Cyclopropyl-3-(2-(trifluoromethoxy)phenyl)isoxazol-4-yl)-7-azaspiro[3.5]non-1-en-7-yl) nicotinic acid] | 770
11 | COc1cc(C(=O)O)nc2ccc(N3CCC4(C=C(c5c(-c6ncccc6Cl)noc5C5CC5)C4)CC3)cc12 [Example 145, 6-(2-(3-(3-Chloropyridin-2-yl)-5-cyclopropylisoxazol-4-yl)-7-azaspiro[3.5]non-1-en-7-yl)-4-methoxyquinoline-2-carboxylic acid] | 160
12 | O=C(O)c1cnc(N2CCC3(C=C(c4c(-c5c(Cl)cccc5Cl)noc4C4CC4)C3)CC2)c(F)c1 [Example 28, 6-(2-(5-Cyclopropyl-3-(2,6-dichlorophenyl)isoxazol-4-yl)-7-azaspiro[3.5]non-1-en-7-yl)-5-fluoronicotinic acid] | 453
13 | O=C(O)c1cnc2cc(N3CCC4(C=C(c5c(-c6ccccc6C(F)(F)F)noc5C5CC5)C4)CC3)ccc2n1 [Example 178, 6-(2-(5-Cyclopropyl-3-(2-(trifluoromethyl)phenyl)isoxazol-4-yl)-7-azaspiro[3.5]non-1-en-7-yl)quinoxaline-2-carboxylic acid] | 172
14 | CC(C)c1onc(-c2c(Cl)cccc2Cl)c1C1=CC2(CCN(c3ccc4cc(C(=O)O)nnc4c3)CC2)C1 [Example 148, 7-(2-(3-(2,6-Dichlorophenyl)-5-isopropylisoxazol-4-yl)-7-azaspiro[3.5]non-1-en-7-yl) cinnoline-3-carboxylic acid] | 548
15 | Cc1cc(C(=O)O)nc2ccc(N3CCC4(C=C(c5c(-c6c(Cl)cncc6Cl)noc5C5CC5)C4)CC3)cc12 [Example 87, 6-(2-(5-Cyclopropyl-3-(3,5-dichloropyridin-4-yl)isoxazol-4-yl)-7-azaspiro[3.5]non-1-en-7-yl)-4-methylquinoline-2-carboxylic acid] | 76
16 | Cn1cc(C(=O)O)c2ccc(N3CCC4(C=C(c5c(-c6ccccc6C(F)(F)F)noc5C5CC5)C4)CC3)cc21 [Example 141, 6-(2-(5-Cyclopropyl-3-(2-(trifluoromethyl)phenyl)isoxazol-4-yl)-7-azaspiro[3.5]non-1-en-7-yl)-1-methyl-1H-indole-3-carboxylic acid] | 142
17 | CC(C)Oc1cc(C(=O)O)nc2ccc(N3CCC4(C=C(c5c(-c6ccccc6C(F)(F)F)noc5C5CC5)C4)CC3)cc12 [Example 104, 6-(2-(5-Cyclopropyl-3-(2-(trifluoromethyl)phenyl)isoxazol-4-yl)-7-azaspiro[3.5]non-1-en-7-yl)-4-isopropoxyquinoline-2-carboxylic acid] | 59
18 | O=C(O)c1cc2ccc(N3CCC4(C=C(c5c(-c6ccccc6C(F)(F)F)noc5C5CC5)C4)CC3)cc2cn1 [Example 159, 7-(2-(5-Cyclopropyl-3-(2-(trifluoromethyl)phenyl)isoxazol-4-yl)-7-azaspiro[3.5]non-1-en-7-yl)isoquinoline-3-carboxylic acid] | 254
19 | CC(C)Oc1cc(C(=O)O)nc2ccc(N3CCC4(C=C(c5c(-c6ccccc6OC(F)(F)F)noc5C5CC5)C4)CC3)cc12 [Example 106, 6-(2-(5-Cyclopropyl-3-(2-(trifluoromethoxy)phenyl)isoxazol-4-yl)-7-azaspiro[3.5]non-1-en-7-yl)-4-isopropoxyquinoline-2-carboxylic acid] | 21
20 | COc1cncc(F)c1-c1noc(C2CC2)c1C1=CC2(CCN(c3ccc4nc(C(=O)O)cc(C(F)(F)F)c4c3)CC2)C1 [Example 97, 6-(2-(5-Cyclopropyl-3-(3-fluoro-5-methoxypyridin-4-yl)isoxazol-4-yl)-7-azaspiro[3.5]non-1-en-7-yl)-4-(trifluoromethyl)quinoline-2-carboxylic acid] | 1940
